Legend:
Rattus norvegicus [1] = experiment: Antiinflammatory activity in Wistar Albino rat assessed as inhibition of carrageenan-induced paw oedema at 50 mg/kg, ip after 1 hr; type: functional; conditions: route intraperitoneal
Rattus norvegicus [2] = experiment: Antiinflammatory activity in Wistar Albino rat assessed as inhibition of carrageenan-induced paw oedema at 50 mg/kg, ip after 2 hrs; type: functional; conditions: route intraperitoneal
Rattus norvegicus [3] = experiment: Antiinflammatory activity in Wistar Albino rat assessed as inhibition of carrageenan-induced paw oedema at 50 mg/kg, ip after 3 hrs; type: functional; conditions: route intraperitoneal
Rattus norvegicus [4] = experiment: Antiinflammatory activity in Wistar Albino rat assessed as inhibition of carrageenan-induced paw oedema at 50 mg/kg, ip after 4 hrs; type: functional; conditions: route intraperitoneal
Mus musculus = experiment: Toxicity in intraperitoneally dosed Albino mouse after 24 hrs; type: organism-based; conditions: in vivo, ip
Rattus norvegicus [5] = experiment: Antiinflammatory activity against carrageenan-induced paw oedema in Wistar Albino rat assessed as mean swelling paw volume at 50 mg/kg, ip after 1 hr; type: functional; conditions: route intraperitoneal
Rattus norvegicus [6] = experiment: Antiinflammatory activity against carrageenan-induced paw oedema in Wistar Albino rat assessed as mean swelling paw volume at 50 mg/kg, ip after 2 hrs; type: functional; conditions: route intraperitoneal
Rattus norvegicus [7] = experiment: Antiinflammatory activity against carrageenan-induced paw oedema in Wistar Albino rat assessed as mean swelling paw volume at 50 mg/kg, ip after 3 hrs; type: functional; conditions: route intraperitoneal
Rattus norvegicus [8] = experiment: Antiinflammatory activity against carrageenan-induced paw oedema in Wistar Albino rat assessed as mean swelling paw volume at 50 mg/kg, ip after 4 hrs; type: functional; conditions: route intraperitoneal
Rattus norvegicus [9] = experiment: Antiinflammatory activity in Wistar Albino rat assessed as inhibition of carrageenan-induced paw oedema at 5 mg/kg, ip after 1 hr; type: functional; conditions: route intraperitoneal
Rattus norvegicus [10] = experiment: Antiinflammatory activity in Wistar Albino rat assessed as inhibition of carrageenan-induced paw oedema at 5 mg/kg, ip after 2 hrs; type: functional; conditions: route intraperitoneal
Rattus norvegicus [11] = experiment: Antiinflammatory activity in Wistar Albino rat assessed as inhibition of carrageenan-induced paw oedema at 5 mg/kg, ip after 3 hrs; type: functional; conditions: route intraperitoneal
Rattus norvegicus [12] = experiment: Antiinflammatory activity in Wistar Albino rat assessed as inhibition of carrageenan-induced paw oedema at 5 mg/kg, ip after 4 hrs; type: functional; conditions: route intraperitoneal
Rattus norvegicus [13] = experiment: Antiinflammatory activity against carrageenan-induced paw oedema in Wistar Albino rat assessed as mean swelling paw volume at 5 mg/kg, ip after 1 hr; type: functional; conditions: route intraperitoneal
Rattus norvegicus [14] = experiment: Antiinflammatory activity against carrageenan-induced paw oedema in Wistar Albino rat assessed as mean swelling paw volume at 5 mg/kg, ip after 2 hrs; type: functional; conditions: route intraperitoneal
Rattus norvegicus [15] = experiment: Antiinflammatory activity against carrageenan-induced paw oedema in Wistar Albino rat assessed as mean swelling paw volume at 5 mg/kg, ip after 3 hrs; type: functional; conditions: route intraperitoneal
Rattus norvegicus [16] = experiment: Antiinflammatory activity against carrageenan-induced paw oedema in Wistar Albino rat assessed as mean swelling paw volume at 5 mg/kg, ip after 4 hrs; type: functional; conditions: route intraperitoneal

| Compound | inhibition in vivo at 50 mg/kg (Rattus norvegicus [1]) [%] | inhibition in vivo at 50 mg/kg (Rattus norvegicus [2]) [%] | inhibition in vivo at 50 mg/kg (Rattus norvegicus [3]) [%] | inhibition in vivo at 50 mg/kg (Rattus norvegicus [4]) [%] | Activity (Mus musculus) | Activity (Rattus norvegicus [5]) [mL] | Activity (Rattus norvegicus [6]) [mL] | Activity (Rattus norvegicus [7]) [mL] | Activity (Rattus norvegicus [8]) [mL] | inhibition in vivo at 5 mg/kg (Rattus norvegicus [9]) [%] | inhibition in vivo at 5 mg/kg (Rattus norvegicus [10]) [%] | inhibition in vivo at 5 mg/kg (Rattus norvegicus [11]) [%] | inhibition in vivo at 5 mg/kg (Rattus norvegicus [12]) [%] | Activity (Rattus norvegicus [13]) [mL] | Activity (Rattus norvegicus [14]) [mL] | Activity (Rattus norvegicus [15]) [mL] | Activity (Rattus norvegicus [16]) [mL] |
| --- | --- | --- | --- | --- | --- | --- | --- | --- | --- | --- | --- | --- | --- | --- | --- | --- | --- |
| CCOc1nc2c(c(-c3ccc(OC)cc3)c1C#N)CCSc1ccccc1-2 | 62 | 79.5 | 90.6 | 87.5 | Non-toxic | 0.23 | 0.23 | 0.128 | 0.2 |  |  |  |  |  |  |  |  |
| N#Cc1c(-c2ccc(Br)cc2)c2c([nH]c1=S)-c1ccccc1SCC2 | 38 | 56.7 | 63.8 | 69.7 |  | 0.375 | 0.485 | 0.495 | 0.485 |  |  |  |  |  |  |  |  |
| COc1nc2c(c(-c3ccc(Cl)cc3)c1C#N)CCSc1ccccc1-2 | 63.1 | 74.7 | 79.8 | 75.3 |  | 0.223 | 0.283 | 0.277 | 0.396 |  |  |  |  |  |  |  |  |
| COc1nc2c(c(-c3cccs3)c1C#N)CCSc1ccccc1-2 | 55.4 | 60.1 | 56.1 | 56.6 |  | 0.27 | 0.447 | 0.6 | 0.695 |  |  |  |  |  |  |  |  |
| COc1ccc2c(c1)c(CC(=O)O)c(C)n2C(=O)c1ccc(Cl)cc1 [INDOMETHACIN] |  |  |  |  |  |  |  |  |  | 71.1 | 82.6 | 66.4 | 82.6 | 0.175 | 0.195 | 0.46 | 0.278 |
| COc1ccc(-c2c(C#N)c(OC)nc3c2CCSc2ccccc2-3)cc1 | 58.7 | 81.9 | 87 | 85.1 | Non-toxic | 0.25 | 0.203 | 0.178 | 0.238 |  |  |  |  |  |  |  |  |
| CCOc1nc2c(c(-c3ccc(Cl)cc3)c1C#N)CCSc1ccccc1-2 | 81.3 | 87.7 | 88.5 | 86.8 | Non-toxic | 0.113 | 0.138 | 0.158 | 0.212 |  |  |  |  |  |  |  |  |
| COc1ccc(-c2c3c([nH]c(=S)c2C#N)-c2ccccc2SCC3)cc1 | 54.5 | 68.3 | 63.5 | 56.3 |  | 0.275 | 0.355 | 0.5 | 0.7 |  |  |  |  |  |  |  |  |
| COc1nc2c(c(-c3ccco3)c1C#N)CCSc1ccccc1-2 | 79.5 | 51.1 | 58.2 | 68.3 |  | 0.124 | 0.548 | 0.572 | 0.508 |  |  |  |  |  |  |  |  |
| C1CCNCC1.COc1ccc(-c2c(C#N)c(S)[nH]c(=S)c2C#N)cc1.O | 9.4 | 47 | 57 | 58.9 |  | 0.548 | 0.594 | 0.588 | 0.658 |  |  |  |  |  |  |  |  |
| C1COCCN1.COc1ccc(-c2c(C#N)c(S)[nH]c(=S)c2C#N)cc1.O | 30.6 | 55.5 | 67.8 | 66.5 |  | 0.42 | 0.498 | 0.44 | 0.536 |  |  |  |  |  |  |  |  |
| COc1nc2c(c(-c3ccccc3)c1C#N)CCSc1ccccc1-2 | 54 | 61 | 59.2 | 80.9 |  | 0.278 | 0.437 | 0.558 | 0.305 |  |  |  |  |  |  |  |  |

Reference: ChEMBL document CHEMBL1142913, “Novel synthesis of [1]-benzothiepino[5,4-b]pyridine-3-carbonitriles and their anti-inflammatory properties” (Bioorg Med Chem, 2007)
